The text below walks through data of US7727949B2, “Cleaning agent for thermostatic chambers” (Wako Pure Chemical Industries, Ltd., priority 2005, dated 2010).

Holding throughout (assay): Study of antimicrobial activity in the presence of proteins (MIC)
Holding throughout (type): cell-based

For assay [1], the system named is Bacillus subtilis (NBRC13719). The procedure: (§1) GOT (glutamic-oxaloacetic transaminase) solution: GOT Substrate-Enzyme solution and GOT-2α•KG solution which were components of L type Wako GOT•J2 kit (produced by Wako Pure Chemical Industries, Ltd.) were prepared with distilled water so as to become a 0.2 w/w % aqueous solution.
(§2) GPT (glutamic-pyruvic transaminase) solution: GOT Substrate-Enzyme solution and GOT•2α-KG solution which were components of L type Wako GPT•J2 kit (produced by Wako Pure Chemical Industries, Ltd.) were prepared with distilled water so as to become a 0.2 w/w % aqueous solution.
(§3) Serum: Control Serum II Wako (produced by Wako Pure Chemical Industries, Ltd.) was prepared with distilled water so as to become a 0.2 w/w % aqueous solution with distilled water.
(§4) In a sterilized petri dish having a diameter of 90 mm, an aqueous solution which was obtained by diluting each of agents with distilled water was added such that a concentration of the agent become each predetermined concentrations when the solution is prepared to a total volume of 20 mL, and the agent aqueous solution and a reagent solution such that a final concentration of each of components (GOT, GPT, and serum) in the reagent become 100 μg/mL when the solution is prepared to a total volume of 20 mL. And then, sterilized water was added into the petri dish such that a total volume of sterilized water and the agent aqueous solution become 2 mL. Further, 18 mL of nutrient agar medium, which was sterilized with high pressure steam and preserved at 50° C.±2° C., was added into the petri dish, and it was solidified to obtain an agar plate medium. Furthermore, as a reference, agar plate medium obtained by using pure water instead of the agent solution was also prepared.
(§5) The individual test microorganisms, which was preliminarily cultured in bouillon medium in advance until 1×10^8 microorganisms/mL, was diluted with sterilized physiological saline for 100 times (to 1×10^6 microorganisms/mL). Next, the prepared solution of the test microorganisms was smeared with a platinum loop on the surface of the agar plate medium prepared in (2), and the medium was cultured at 35° C.±2° C. for 24 hours.
(§6) After the cultivation, confirming the presence or not of the growth of the microorganism on the surface of the medium was conducted, a minimum concentration of the agent, where growth of the microorganisms cannot be recognized, was determine as the minimum inhibitory concentration (MIC, μg/mL) of the agent.

In assay [2] the test system is Escherichia coli (NBRC3972). On the procedure:
as §1, §2, §3, §4, §5, §6

Assay [3] relates to Pseudonas aeruginosa (NBRC12689). The procedure:
as §1, §2, §3, §4, §5, §6

Assay [4] relates to Staphylococcus aureus (NBRC12732). The procedure: as §1, §2, §3, §4, §5, §6

Some results are limits rather than exact numbers.

`CCCCCCCCCCCCN(CCCN)CCCN` [TAA, N-bis(3-aminopropyl)dodecylamine]: the “Minimum Inhibitory Concentration B.s” value in assay [1] (GOT 100 μg/mL), in assay [1] (GPT 100 μg/mL), in assay [1] (Pure Water) and in assay [1] (Serum 100 μg/mL) was 10 µg/mL throughout. Also, the “Minimum Inhibitory Concentration E.c” value in assay [2] (GOT 100 μg/mL), in assay [2] (GPT 100 μg/mL), in assay [2] (Pure Water) and in assay [2] (Serum 100 μg/mL) was 50 µg/mL in each case. Besides, the “Minimum Inhibitory Concentration P.a” value in assay [3] (GOT 100 μg/mL) stood at 100 µg/mL; in assay [3] (GPT 100 μg/mL) it was 100 µg/mL; in assay [3] (Pure Water), 10 µg/mL; in assay [3] (Serum 100 μg/mL), 100 µg/mL. The “Minimum Inhibitory Concentration S.a” value in assay [4] (GOT 100 μg/mL), in assay [4] (GPT 100 μg/mL), in assay [4] (Pure Water) and in assay [4] (Serum 100 μg/mL) was 10 µg/mL throughout.

For the molecule Didecyldimethylammonium adipate [DDAA], the “Minimum Inhibitory Concentration B.s” value in assay [1] (GOT 100 μg/mL), in assay [1] (GPT 100 μg/mL), in assay [1] (Pure Water) and in assay [1] (Serum 100 μg/mL) was <1 µg/mL in each case. Also, the “Minimum Inhibitory Concentration E.c” value in assay [2] (GOT 100 μg/mL), in assay [2] (GPT 100 μg/mL), in assay [2] (Pure Water) and in assay [2] (Serum 100 μg/mL) was 50 µg/mL in each case. The “Minimum Inhibitory Concentration P.a” value in assay [3] (GOT 100 μg/mL), in assay [3] (GPT 100 μg/mL), in assay [3] (Pure Water) and in assay [3] (Serum 100 μg/mL) was 200 µg/mL each time. Also, the “Minimum Inhibitory Concentration S.a” value in assay [4] (GOT 100 μg/mL), in assay [4] (GPT 100 μg/mL), in assay [4] (Pure Water) and in assay [4] (Serum 100 μg/mL) was <1 µg/mL throughout.

“benzalkonium chloride [BC, reference compound]”: the “Minimum Inhibitory Concentration B.s” value in assay [1] (GOT 100 μg/mL), in assay [1] (GPT 100 μg/mL), in assay [1] (Pure Water) and in assay [1] (Serum 100 μg/mL) was 10 µg/mL each time. Besides, the “Minimum Inhibitory Concentration E.c” value in assay [2] (GOT 100 μg/mL) is 200 µg/mL; in assay [2] (GPT 100 μg/mL) it was 200 µg/mL; in assay [2] (Pure Water), 100 µg/mL; in assay [2] (Serum 100 μg/mL) it was 200 µg/mL. Moreover, the “Minimum Inhibitory Concentration P.a” value in assay [3] (GOT 100 μg/mL), in assay [3] (GPT 100 μg/mL), in assay [3] (Pure Water) and in assay [3] (Serum 100 μg/mL) was >200 µg/mL each time. Moreover, the “Minimum Inhibitory Concentration S.a” value is <1 µg/mL in assay [4] (GOT 100 μg/mL), 50 µg/mL in assay [4] (GPT 100 μg/mL), <1 µg/mL in assay [4] (Pure Water) and <1 µg/mL in assay [4] (Serum 100 μg/mL).
